# Assay results taken from ChEMBL document CHEMBL5338724, “METTL3 from Target Validation to the First Small-Molecule Inhibitors: A Medicinal Chemistry Journey” (J Med Chem, 2023).
# Tests used:
# [1] = target: N6-adenosine-methyltransferase catalytic subunit (Homo sapiens, UniProt Q86U44); experiment: Inhibition of METTL3 in human MOLM-13 cells assessed as decrease in cellular m6A mRNA level incubated for 24 hrs by NanoDrop spectrophotometer based LC-MS/MS analysis; type: cell-based
# MOLM-13 [2] = experiment: Antiproliferative activity against human MOLM-13 cells assessed as inhibition of cell proliferation incubated for 48 hrs by Cell Titer-Glo reagent assay; type: functional, cell-based; settings: MOLM-13, 48 h
# METTL3/METTL14 [3] = target: T1, METTL3/METTL14 (Homo sapiens, UniProt Q86U44); experiment: Inhibition of METTL3/METTL14 (unknown origin) using biotinylated RNA (UCUGGACUAAA-biotin) and 3H-SAM as substrate preincubated for 5 mins followed by substrate addition and measured after 30 mins by scintillation counter analysis; type: protein-complex assay
# MOLM-13 [4] = experiment: Antiproliferative activity against human MOLM-13 cells assessed as inhibition of cell proliferation incubated for 96 hrs by Cell Titer-Glo reagent assay; type: functional, cell-based; settings: MOLM-13, 96 h
# MOLM-13 [5] = experiment: Antiproliferative activity against human MOLM-13 cells assessed as decrease cell proliferation; type: functional, cell-based
# METTL3/METTL14 [6] = target: T1, METTL3/METTL14; experiment: Inhibition of METTL3/METTL14 (unknown origin); type: protein-complex assay
# METTL3/METTL14 [7] = target: T1, METTL3/METTL14; experiment: Competive inhibition of full length human METTL3/METTL14 expressed in Sf9 cells using single strand RNA 5'-AAGAACCGGACUAAGCU-3' and SAM as substrate incubated for 40 mins by HTRF assay
# Caov-3 cell line [8] = experiment: Antiproliferative activity against human Caov-3 cell line assessed as inhibition of cell proliferation incubated for 120 hrs by CellTiter-Glo assay; type: functional, cell-based; settings: Caov-3, 120 h
# Kasumi 1 [9] = experiment: Antiproliferative activity against human Kasumi 1 cells assessed as inhibition of cell proliferation incubated for 120 hrs by CellTiter-Glo assay; type: functional, cell-based; settings: Kasumi 1, 120 h
# MOLM-13 [10] = experiment: Antiproliferative activity against human MOLM-13 cells assessed as inhibition of cell proliferation and measured after 7 days by CellTiter-Glo assay; type: functional, cell-based; settings: MOLM-13, 168 h
# Caov-3 cell line [11] = experiment: Antiproliferative activity against human Caov-3 cell line assessed as inhibition of cell proliferation and measured after 7 days by CellTiter-Glo assay; type: functional, cell-based; settings: Caov-3, 168 h
# METTL3/METTL14 [12] = target: T1, METTL3/METTL14; experiment: Inhibition of full-length His-tagged METTL3/full length FLAG-tagged METTL14 (unknown origin) expressed in baculovirus expression system using synthetic RNA 5'P-uacacucgaucuggacuaaagcugcuc-3' and SAM as substrate preincubated for 10 mins followed by substrate addition and measured after 60 mins by RF/MS analysis
# METTL3/METTL14 [13] = target: T1, METTL3/METTL14
# HL-60 [14] = experiment: Antiproliferative activity against human HL-60 cells assessed as cell growth inhibition; type: functional
# MOLM-14 = experiment: Antiproliferative activity against human MOLM-14 cells assessed as cell growth inhibition; type: functional
# THP-1 = experiment: Antiproliferative activity against human THP-1 cells assessed as cell growth inhibition; type: functional
# MOLM-13 [15] = experiment: Antiproliferative activity against human MOLM-13 cells assessed as cell growth inhibition; type: functional
# HL-60 [16] = experiment: cells; settings: Homo sapiens, HL-60, 168 h
# OCI-AML2 = experiment: cells; settings: Homo sapiens, OCI-AML2, 168 h
# NOMO-1 = experiment: cells; settings: Homo sapiens, NOMO-1, 168 h
# EOL1 = experiment: cells; settings: Homo sapiens, EOL1, 168 h
# OCI-AML-3 = experiment: cells; settings: Homo sapiens, OCI-AML-3, 168 h
# Kasumi 1 [17] = experiment: cells; settings: Homo sapiens, Kasumi 1, 168 h
# [18] = target: METTL3/METTL14 (Homo sapiens) (UniProt Q86U44+Q9HCE5); experiment: Inhibition of METTL3/METTL14 (unknown origin) at 60 uM relative to control; type: protein-complex assay
# [19] = Selectivity ratio of IC50 for inhibition of METTL3/METTL14 (unknown origin) to IC50 for inhibition of FLT3 (unknown origin)
# [20] = Selectivity ratio of IC50 for inhibition of METTL3/METTL14 (unknown origin) to IC50 for inhibition of PRMT5/MEP50 (unknown origin)
# METTL3/METTL14 [21] = target: T1, METTL3/METTL14; experiment: Inhibition of METTL3/METTL14 (unknown origin) using RNA 5'-GGACUGGACUGGACU-3' as substrate incubated for 2 hrs by LC-MS/MS analysis; type: protein-complex assay
smiles,measurement,setting,value
Cn1ccc(-c2cn([C@H]3C[C@H](O)[C@@H](COc4ccc5ccc(N6CCC6)nc5c4)O3)c3ncnc(N)c23)n1,IC50,[1],< 1000 nM
same,IC50,MOLM-13 [2],< 10000 nM
same,IC50,METTL3/METTL14 [3],< 10 nM
same,IC50,MOLM-13 [4],< 10000 nM
O=C(O)c1ccccc1OCCc1cn(-c2ccc(-c3ccc(Cl)cc3)cc2)c2ccc(-c3ccc(F)cc3)cc12,EC50,MOLM-13 [5],26900 nM
same,IC50,METTL3/METTL14 [6],3130 nM
O=C(O)c1ccccc1OCCc1cn(C(c2ccccc2)c2ccccc2)c2ccc(Cl)cc12,IC50,METTL3/METTL14 [6],13000 nM
O=C(O)c1ccccc1OCCc1cn(C(c2ccccc2)c2ccccc2)c2ccc(-c3ccccc3)cc12,IC50,METTL3/METTL14 [6],8630 nM
CCc1cc(N(C)CCOC)c2ccc(CCc3cncc(-n4cc(-c5ccn(C)n5)c5c(N)ncnc54)c3)cc2n1,IC50,[1],< 1000 nM
same,IC50,METTL3/METTL14 [3],< 10 nM
same,IC50,MOLM-13 [4],< 10000 nM
Nc1ncnc2c1ncn2C[C@H]1OC[C@@H](O)[C@@H](O)[C@H]1O,IC50,METTL3/METTL14 [7],> 250000 nM
"Nc1ncnc2c1ccn2[C@@H]1C[C@H](c2ccc3cc(CN4CCC5(CCC5)C4)[nH]c3c2)[C@@H](O)[C@H]1O (single isomer, unassigned)",IC50,Caov-3 cell line [8],250 nM
same,IC50,Kasumi 1 [9],950 nM
COc1ccc2[nH]ncc2c1-c1cn(Cc2cn3cc(CNCC4CCC4)ccc3n2)nn1,IC50,MOLM-13 [10],1170 nM
same,IC50,Caov-3 cell line [11],558 nM
COc1cc(-c2cn(Cc3cn4cc(CNCC56CC(F)(C5)C6)ccc4n3)nn2)c2cncn2c1,IC50,Caov-3 cell line [8],305 nM
same,IC50,Kasumi 1 [9],1150 nM
O=C(NCc1cn2cc(CNCC34CC(F)(C3)C4)ccc2n1)c1cc(=O)n2ccccc2n1,IC50,MOLM-13 [10],657 nM
same,IC50,Caov-3 cell line [11],248 nM
"Nc1ncnc2c1c(Br)cn2[C@@H]1C[C@H](c2ccc3cc(CN4CCC5(CCC5)C4)[nH]c3c2)[C@@H](O)[C@H]1O (single isomer, unassigned)",IC50,Caov-3 cell line [8],250 nM
same,IC50,Kasumi 1 [9],950 nM
"Nc1ncnc2c1ncn2[C@@H]1O[C@H](C(=O)NCC2CCNCC2)[C@@H](O)[C@H]1O (single isomer, unassigned)",IC50,METTL3/METTL14 [7],> 250000 nM
CCc1cc(NCCOC)c2ccc(CCc3cncc(-n4cc(-c5ccn(C)n5)c5c(N)ncnc54)c3)cc2n1,IC50,[1],< 1000 nM
same,IC50,METTL3/METTL14 [3],< 10 nM
same,IC50,MOLM-13 [4],< 10000 nM
Nc1ncnc2c1c(-n1cccn1)cn2[C@H]1C[C@H](O)[C@@H](COc2ccc3ccc(N4CCC4)nc3c2)O1,IC50,[1],< 1000 nM
same,IC50,MOLM-13 [2],< 10000 nM
same,IC50,METTL3/METTL14 [3],< 10 nM
same,IC50,MOLM-13 [4],< 10000 nM
O=C(O)c1ccccc1OCCc1cn(-c2cccc(-c3ccccc3)c2)c2ccc(-c3ccc(F)cc3)cc12,EC50,MOLM-13 [5],29900 nM
same,IC50,METTL3/METTL14 [6],2740 nM
CNc1ccc2ccc(CCc3cncc(-n4cc(-c5ccn(C)n5)c5c(N)ncnc54)c3)cc2n1,IC50,[1],< 1000 nM
same,IC50,MOLM-13 [2],< 1000 nM
same,IC50,METTL3/METTL14 [3],< 10 nM
COc1cc(-c2cn(Cc3cn4cc(CNCC5CCC5)ccc4n3)nn2)c2cn[nH]c2c1,IC50,METTL3/METTL14 [12],3.63 nM
Cn1ccc(-c2cn([C@@H]3O[C@H](COc4ccc5ccc(N6CCC6)nc5c4)[C@@H](O)[C@@H]3F)c3ncnc(N)c23)n1,IC50,[1],< 1000 nM
same,IC50,MOLM-13 [2],< 10000 nM
same,IC50,METTL3/METTL14 [3],< 10 nM
same,IC50,MOLM-13 [4],< 10000 nM
Clc1cc(-c2cn(Cc3cn4cc(CNCC5CCC5)ccc4n3)nn2)c2cn[nH]c2c1,IC50,METTL3/METTL14 [12],4.35 nM
O=C(O)c1ccccc1OCCc1cn(C(c2ccccc2)c2ccccc2)c2ccc(-c3ccc(F)cc3)cc12,IC50,METTL3/METTL14 [6],6000 nM
O=C(O)c1ccccc1OCCc1cn(-c2ccc(-c3ccccc3)cc2)c2ccc(-c3ccc(F)cc3)cc12,EC50,MOLM-13 [5],32500 nM
same,IC50,METTL3/METTL14 [6],2950 nM
O=C(O)c1ccccc1OCCc1cn(-c2ccc(-c3c(Cl)cccc3Cl)cc2)c2ccc(-c3ccc(F)cc3)cc12,IC50,METTL3/METTL14 [13],4920 nM
same,GI50,HL-60 [14],15500 nM
same,GI50,MOLM-14,13100 nM
same,EC50,MOLM-13 [5],14600 nM
same,GI50,THP-1,21600 nM
same,GI50,MOLM-13 [15],14600 nM
Nc1ncnc2c1c(Br)cn2[C@@H]1C[C@H](c2ccc3cc(CNCC45CC(F)(C4)C5)[nH]c3c2)[C@@H](O)[C@H]1O,IC50,Caov-3 cell line [8],250 nM
same,IC50,METTL3/METTL14 [12],< 6 nM
same,IC50,Kasumi 1 [9],950 nM
O=C(NCc1cn2cc(CNCC3CCCCC3)ccc2n1)c1cc(=O)n2ccccc2n1,IC50,HL-60 [16],10300 nM
same,IC50,OCI-AML2,1780 nM
same,IC50,NOMO-1,600 nM
same,IC50,MOLM-13 [10],1040 nM
same,IC50,EOL1,1940 nM
same,IC50,OCI-AML-3,3200 nM
same,IC50,Kasumi 1 [17],700 nM
COC(=O)c1cccc(-c2cccc(N/N=C3\C(=O)N(c4ccc(C)c(C)c4)N=C3C)c2O)c1,inhibition,[18],23.7%
Cn1ccc(-c2cn([C@@H]3O[C@H](C(=O)Nc4ccc5ccc(N6CCC6)nc5c4)[C@@H](O)[C@@H]3F)c3ncnc(N)c23)n1,IC50,METTL3/METTL14 [3],< 10 nM
same,Ratio IC50,[19],> 100
same,Ratio IC50,[20],> 100
CC1=NN(c2ccc(C)c(C)c2)C(=O)/C1=N\Nc1cccc(-c2ccccc2)c1O,inhibition,[18],23.3%
CNc1ccc2ccc(OC[C@H]3O[C@@H](n4cc([C@@H]5CCCO5)c5c(N)ncnc54)[C@@H](F)[C@@H]3O)cc2n1,IC50,[1],< 1000 nM
same,IC50,MOLM-13 [2],< 10000 nM
same,IC50,METTL3/METTL14 [3],< 10 nM
same,IC50,MOLM-13 [4],< 10000 nM
Cc1coc(-c2cn([C@@H]3O[C@H](COc4ccc5ccc(N6CCC6)nc5c4)[C@@H](O)[C@@H]3F)c3ncnc(N)c23)n1,IC50,MOLM-13 [2],< 10000 nM
same,IC50,METTL3/METTL14 [3],< 10 nM
same,IC50,MOLM-13 [4],< 10000 nM
Cn1ccc(-c2cn([C@@H]3O[C@H](COc4ccc5ccc(NC6CCC6)nc5c4)[C@@H](O)[C@@H]3F)c3ncnc(N)c23)n1,IC50,[1],< 1000 nM
same,IC50,MOLM-13 [2],< 10000 nM
same,IC50,METTL3/METTL14 [3],< 10 nM
same,IC50,MOLM-13 [4],< 10000 nM
COc1cc(-c2cn(Cc3cn4cc(CNCC5CCC5)ccc4n3)nn2)c2cncn2c1,IC50,Caov-3 cell line [8],103 nM
same,IC50,Kasumi 1 [9],316 nM
Nc1ncnc2c1c(-n1cccn1)cn2[C@@H]1O[C@H](COc2ccc3ccc(N4CCC4)nc3c2)[C@@H](O)[C@@H]1F,IC50,MOLM-13 [2],< 10000 nM
same,IC50,METTL3/METTL14 [3],< 10 nM
same,IC50,MOLM-13 [4],< 10000 nM
Nc1ncnc2c1c(Cl)cn2[C@@H]1C[C@H](c2ccc3cc(CNCC45CC(F)(C4)C5)[nH]c3c2)[C@@H](O)[C@H]1O,IC50,Caov-3 cell line [8],250 nM
same,IC50,Kasumi 1 [9],950 nM
CNc1ccc2ccc(OCc3cncc(-n4cc([C@@H]5CCCO5)c5c(N)ncnc54)c3)cc2n1,IC50,[1],< 1000 nM
same,IC50,METTL3/METTL14 [3],< 10 nM
same,IC50,MOLM-13 [4],< 10000 nM
O=c1cc(-c2ccc(O)c(O)c2)oc2cc(O)cc(O)c12 [LUTEOLIN],IC50,METTL3/METTL14 [21],6230 nM
Cc1c(CCOc2ccc(C(=O)O)cc2)c2cc(Cl)ccc2n1C(c1ccccc1)c1ccccc1,IC50,METTL3/METTL14 [6],17300 nM
COc1cc(-c2cn(Cc3cn4cc(CNCC56CC(C5)C6)ccc4n3)nn2)c2cncn2c1,IC50,Caov-3 cell line [8],110 nM
same,IC50,Kasumi 1 [9],419 nM
O=C(O)[C@H]1O[C@@H](Oc2cc3oc(-c4ccc(O)cc4)cc(=O)c3c(O)c2O)[C@H](O)[C@@H](O)[C@@H]1O [SCUTELLARIN],IC50,METTL3/METTL14 [21],19200 nM
